From article PMC12188386, “Selective CBP/EP300 Bromodomain Inhibitors: Novel Epigenetic Tools to Counter TNF-α-Driven Inflammation” (JACS Au, 2025)

Tests used:
[1] = tested on: TNF-α-induced cytokine expression in THP-1 cells; assay: cytokine mRNA expression by RT-qPCR; assay type: cell-based, human; conditions: 1 h co-treatment of THP-1 cells with 10 ng/mL TNF-α and 1 μM compound
Description: For cytokine expression determination, 5x10^5 THP-1 cells were plated on 12 well plates the day prior to treatment with 10 ng/mL recombinant human TNF -α (aa 77-233) protein (R&D systems, 10291 -TA) and compounds at a final concentration of 0.1 % DMSO. In all cases, total
RNA was extracted using the NucleoSpin® RNA kit (Machery -Nagel) and used for cDNA synthesis with the High -Capacity cDNA Reverse Transcription kit (Applied Biosystems). RT-qPCR reactions were performed using PowerSYBR™ green PCR Master Mix (Applied Biosystems) and a LightCycler® 480 (Roche). cDNA was denatured for 10 min at 95 °C followed by 40 cycles of 15 s at 95 °C and 1 min at 60 °C. Cp values were determined as the maximum of the second derivative and target gene expression was compared to that of hprt from the same sample using the 2-ΔCp method. Gene expression was then normalized to the average of the control samples from the same day, or all biological replicates. […]

[2] = tested on: immune cell recruitment to the popliteal lymph node; assay: TNF-α induced inflammation model, flow cytometry of pLN; assay type: in vivo, mouse; conditions: mice, flow cytometry 5 h post-injection of rmTNF-α, vs control group
[3] = tested on: leukemia, melanoma and breast cancer cell lines; assay: NCI-60 antiproliferation screen; assay type: cell-based, human; conditions: 10 µM
Description: Adapted from NCI-60 Screening Methodology, one-dose screen:20 Briefly, human tumor cell lines, grown in RPMI 1640 containing 5% FBS and 2 mM L-glutamine, were plated in 96 well plates at densities ranging from 5,000 to 40,000 cells/well 24 h prior to addition of test compounds (here 10 μM 2). 400x solutions of test compounds were prepared in DMSO, then diluted to 2x in medium supplemented with 50 μg/mL gentamicin. 100 μl of this 2x stock was added to cells previously plated in 100 μl medium, resulting in the desired final compound concentration. Cells were fixed in situ with cold TCA: untreated cells at the time of compound addition (Tz) and treated cells 48 h after addition of compound (Ti). Cells were washed, then su f rh damine s uti n μ at . w/v in acetic acid was added to each well and incubated for 10 minutes at room temperature. After washing again, the plates were air dried and bound stain solubilized with 10 mM Trizma base before absorbance was […]
(§1) Percentage growth (%Growth) was calculated as follows:
(§2) when Ti ≥ Tz, %Growth = Ti − Tz x 100 where Ti = absorbance from compound treated cells, Tz = absorbance from untreated cells at time zero, and C = absorbance from control (DMSO) treated cells. […]

[4] = tested on: TNF-α-induced IL-8 secretion from THP-1 cells; assay: cytokine protein measurement (LEGENDPlex); assay type: cell-based, human; conditions: 10 ng/mL TNF-α, 1 μM compound
Description: For cytokine expression determination, 5x10^5 THP-1 cells were plated on 12 well plates the day prior to treatment with 10 ng/mL recombinant human TNF -α (aa 77-233) protein (R&D systems, 10291 -TA) and compounds at a final concentration of 0.1 % DMSO. In all cases, total […]
Cytokine protein measurements
THP-1 cells were plated and treated as for the quantitative RT -PCR, then the cell culture medium was harvested by pelleting the cells (300g, 3min) and taking the supernatant .
Cytokine protein concentrations were determined using the LEGENDPlexTM Human Inflammation Panel 1 (BioLegend) assay with 25 µL of culture medium following the manufacturer’s instructi ns. amp es were ana zed f w c t metr n an rtessa Biosciences), and data was analyzed using LEGENDPlex software (BioLegend).

HL-60(TB) = assay: NCI-60 one-dose screen; assay type: cell-based, human; conditions: 10 µM, 48 h, Leukemia
Description: compounds with known characteristics were included as controls. Quantification of test and control compounds was performed by LC-MS/MS using an 8-point calibration curve under Cyprotex standard analytical conditions. The initial concentration (C0) at time zero was determined from the dosing solution, and recovery was calculated based on concentrations […]
The apparent permeability coefficient (Papp) is calculated from the equation (where dQ/dt is the drug permeation rate across the cells, C0 is the concentration in the donor compartment at time zero, and A is the area of the cell monolayer):
Efflux ratio (ER) is calculated from mean A-B and B-A data: […]
Adapted from NCI-60 Screening Methodology, one-dose screen:20 Briefly, human tumor cell lines, grown in RPMI 1640 containing 5% FBS and 2 mM L-glutamine, were plated in 96 well plates at densities ranging from 5,000 to 40,000 cells/well 24 h prior to addition of test compounds (here 10 μM 2). […] After washing again, the plates were air dried and bound stain solubilized with 10 mM Trizma base before absorbance was […]
as §1, §2

Cc1cc2c(NC(=O)c3cc(NC(=O)c4ccco4)cc(-c4ccn(C)n4)c3)cccc2nn1 [Compound 2]
TNF-α-induced expression of il1β, il8, mcp-1 and tnf-α (mRNA) [1]: inhibited expression to a greater extent than the less potent but more soluble inhibitor 5 | recruitment of lymphocytes (T and B cells), dendritic cells and neutrophils to the pLN [2]: significantly inhibited the recruitment of lymphocytes | growth of cancer cell lines (NCI-60), in words [3]: strongly inhibit the growth of leukemia, melanoma and breast cancer cell lines | TNF-α-induced IL-8 protein secretion [4]: significantly reducing its TNF-α-induced secretion | %Growth (HL-60(TB)): 25%
